Data reported in patent publication US11802120B2, “Fused cyclic urea derivatives as CRHR2 antagonist” (RaQualia Pharma Inc., priority 2018, dated 2023).

target: T1, human CRHR2-alpha (Homo sapiens, UniProt Q13324); test: cAMP functional assay for human CRHR2 (LANCE Ultra cAMP, TR-FRET); assay type: cell-based; conditions: CHO-K1 cells expressing human CRHR2-alpha, agonist human urocortin2 at EC80, cAMP; read-out: IC50 against CRHR2
T1 sequence (Q13324 1-411): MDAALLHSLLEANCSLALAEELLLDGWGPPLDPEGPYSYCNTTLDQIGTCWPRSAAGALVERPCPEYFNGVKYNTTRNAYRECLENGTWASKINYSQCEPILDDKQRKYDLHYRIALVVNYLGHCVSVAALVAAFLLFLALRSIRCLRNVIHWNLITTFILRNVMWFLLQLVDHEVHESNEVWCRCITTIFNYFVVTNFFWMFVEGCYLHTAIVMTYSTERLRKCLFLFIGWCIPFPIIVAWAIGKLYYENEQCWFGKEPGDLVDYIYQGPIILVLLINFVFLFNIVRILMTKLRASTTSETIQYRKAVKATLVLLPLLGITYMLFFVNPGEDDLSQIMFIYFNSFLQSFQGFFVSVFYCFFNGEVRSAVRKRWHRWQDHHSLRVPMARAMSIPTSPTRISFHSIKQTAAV
Outline: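 Inhibition of agonist-driven cAMP was assessed in recombinant CHO-K1 cells at 25° C, using 30 min compound pretreatment and 30 min stimulation with EC80 human urocortin2 (CRHR2) or CRF (CRHR1). IC50 came from dose-response fitting.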

IC50, < 300 nM:
Cc1ncc(Cl)cc1C(=O)N[C@H]1CC[C@H](Cn2c(=O)n(-c3ccc4c(N)noc4c3)c3ccccc32)CC1 [Example 198, N-((1r,4r)-4-((3-(3-aminobenzo[d]isoxazol-6-yl)-2-oxo-2,3-dihydro-1H-benzo[d]imidazol-1-yl)methyl)cyclohexyl)-5-chloro-2-methylnicotinamide]
Cc1ccc(C(F)(F)F)c(C(=O)N[C@H]2CC[C@H](Cn3c(=O)n(-c4ccc(C)nc4)c4ccccc43)CC2)c1 [Example 268, 5-methyl-N-((1r,4r)-4-((3-(6-methylpyridin-3-yl)-2-oxo-2,3-dihydro-1H-benzo[d]imidazol-1-yl)methyl)cyclohexyl)-2-(trifluoromethyl)benzamide]
Cc1ncc(Cl)cc1C(=O)N[C@H]1CC[C@H](Cn2c(=O)n(-c3cncc(N4CCCC4)c3)c3ccccc32)CC1 [Example 482, 5-chloro-2-methyl-N-((1r,4r)-4-((2-oxo-3-(5-(pyrrolidin-1-yl)pyridin-3-yl)-2,3-dihydro-1H-benzo[d]imidazol-1-yl)methyl)cyclohexyl)nicotinamide]
Cc1ncc(Cl)cc1C(=O)N[C@H]1CC[C@H](Cn2c(=O)n(-c3ccc(-c4ccccc4CO)nc3)c3ccccc32)CC1 [Example 90, 5-chloro-N-((1r,4r)-4-((3-(6-(2-(hydroxymethyl)phenyl)pyridin-3-yl)-2-oxo-2,3-dihydro-1H-benzo[d]imidazol-1-yl)methyl)cyclohexyl)-2-methylnicotinamide]
Cc1ccc(-n2c(=O)n(C[C@H]3CC[C@H](NC(=O)c4cc(Cl)cnc4C)CC3)c3ccc(F)cc32)cn1 [Example 122, 5-chloro-N-((1r,4r)-4-((5-fluoro-3-(6-methylpyridin-3-yl)-2-oxo-2,3-dihydro-1H-benzo[d]imidazol-1-yl)methyl)cyclo-hexyl)-2-methylnicotinamide]
Cn1ccc(-c2cncc(-n3c(=O)n(C[C@H]4CC[C@H](NC(=O)c5cc(Cl)cnc5C(F)F)CC4)c4ccccc43)c2)n1 [Example 701, 5-chloro-2-(difluoromethyl)-N-((1r,4r)-4-((3-(5-(1-methyl-1H-pyrazol-3-yl)pyridin-3-yl)-2-oxo-2,3-dihydro-1H-benzo [d]imidazol-1-yl)methyl)cyclo-hexyl)nicotinamide]
Cc1ncc(Cl)cc1C(=O)N[C@H]1CC[C@H](Cn2c(=O)n(-c3ccc(-c4c[nH]cn4)cc3)c3ccccc32)CC1 [Example 667, N-((1r,4r)-4-((3-(4-(1H-imidazol-4-yl)phenyl)-2-oxo-2,3-dihydro-1H-benzo[d]imidazol-1-yl)methyl)cyclohexyl)-5-chloro-2-methylnicotinamide]
O=C(N[C@H]1CC[C@H](Cn2c(=O)n(-c3ccc(NC4CC4)nc3)c3ccccc32)CC1)c1cc(Cl)cnc1C(F)F [Example 543, 5-chloro-N-((1r,4r)-4-((3-(6-(cyclopropylamino)pyridin-3-yl)-2-oxo-2,3-dihydro-1H-benzo[d]imidazol-1-yl)methyl)cyclohexyl)-2-(difluoro-methyl)nicotinamide]
Cc1ncc(Cl)cc1C(=O)N[C@H]1CC[C@H](Cn2c(=O)n(-c3cccc(-n4ccnc4)n3)c3ccccc32)CC1 [Example 520, N-((1r,4r)-4-((3-(6-(1H-imidazol-1-yl)pyridin-2-yl)-2-oxo-2,3-dihydro-1H-benzo[d]imidazol-1-yl)methyl)cyclo-hexyl)-5-chloro-2-methyl-nicotinamide]
Cc1ncc(Cl)cc1C(=O)N[C@H]1CC[C@H](Cn2c(=O)n(-c3cncc(-c4cnn(C)c4)c3)c3ccccc32)CC1 [Example 679, 5-chloro-2-methyl-N-((1r,4r)-4-((3-(5-(1-methyl-1H-pyrazol-4-yl)pyridin-3-yl)-2-oxo-2,3-dihydro-1H-benzo[d]imidazol-1-yl)methyl)cyclohexyl) nicotinamide]
O=C(N[C@H]1CC[C@H](Cn2c(=O)n(-c3cnc(OCCO)cn3)c3ccccc32)CC1)c1cc(Cl)cnc1C(F)F [Example 563, 5-chloro-2-(difluoromethyl)-N-((1r,4r)-4-((3-(5-(2-hydroxyethoxy)pyrazin-2-yl)-2-oxo-2,3-dihydro-1H-benzo[d]imidazol-1-yl)methyl)cyclohexyl)nicotinamide]
O=C(N[C@H]1CC[C@H](Cn2c(=O)n(-c3ccc(N4CCCC4=O)nc3)c3ccccc32)CC1)c1cc(Cl)cnc1C(F)(F)F [Example 641, 5-chloro-N-((1r,4r)-4-((2-oxo-3-(6-(2-oxopyrrolidin-1-yl)pyridin-3-yl)-2,3-dihydro-1H-benzo[d]imidazol-1-yl)methyl)cyclohexyl)-2-(trifluoromethyl) nicotinamide]
Cc1n[nH]c2ccc(-n3c(=O)n(C[C@H]4CC[C@H](NC(=O)c5cc(Cl)cnc5C(F)(F)F)CC4)c4ccccc43)cc12 [Example 260, 5-chloro-N-((1r,4r)-4-((3-(3-methyl-1H-indazol-5-yl)-2-oxo-2,3-dihydro-1H-benzo[d]imidazol-1-yl)methyl)cyclohexyl)-2-(trifluoromethyl)nicotinamide]
CNc1ccc(-n2c(=O)n(C[C@H]3CC[C@H](NC(=O)c4cc(Cl)cnc4C)CC3)c3ccccc32)nc1 [Example 574, 5-chloro-2-methyl-N-((1r,4r)-4-((3-(5-(methylamino)pyridin-2-yl)-2-oxo-2,3-dihydro-1H-benzo[d]imidazol-1-yl)methyl)cyclohexyl)nicotinamide]
Cc1ncc(Cl)cc1C(=O)N[C@H]1CC[C@H](Cn2c(=O)n(-c3cncc(-n4cccn4)c3)c3ccccc32)CC1 [Example 636, N-((1r,4r)-4-((3-(5-(1H-pyrazol-1-yl)pyridin-3-yl)-2-oxo-2,3-dihydro-1H-benzo[d]imidazol-1-yl)methyl)cyclohexyl)-5-chloro-2-methylnicotinamide]
Cc1ncc(Cl)cc1C(=O)N[C@H]1CC[C@H](Cn2c(=O)n(-c3ccc(NC[C@H]4CCCO4)nc3)c3ccccc32)CC1 [Example 110, 5-chloro-2-methyl-N-((1R,4r)-4-((2-oxo-3-(6-((((R)-tetra-hydrofuran-2-yl)methyl)amino)pyridin-3-yl)-2,3-dihydro-1H-benzo[d]imidazol-1-yl)methyl)cyclohexyl)nicotinamide]
Cc1ncc(Cl)cc1C(=O)N[C@H]1CC[C@H](Cn2c(=O)n(-c3cccc4c3cnn4C)c3ccccc32)CC1 [Example 347, 5-chloro-2-methyl-N-((1r,4r)-4-((3-(1-methyl-1H-indazol-4-yl)-2-oxo-2,3-dihydro-1H-benzo[d]imidazol-1-yl)methyl)cyclohexyl)nicotinamide]
Cc1ncc(Cl)cc1C(=O)N[C@H]1CC[C@H](Cn2c(=O)n(-c3ccc4ccncc4c3)c3ccccc32)CC1 [Example 396, 5-chloro-N-((1r,4r)-4-((3-(isoquinolin-7-yl)-2-oxo-2,3-dihydro-1H-benzo[d]imidazol-1-yl)methyl)cyclohexyl)-2-methyl-nicotinamide]
Cc1ncc(Cl)cc1C(=O)N[C@H]1CC[C@H](Cn2c(=O)n(-c3ccc4c(C)nn(C)c4c3)c3ccccc32)CC1 [Example 191, 5-chloro-N-((1r,4r)-4-((3-(1,3-dimethyl-1H-indazol-6-yl)-2-oxo-2,3-dihydro-1H-benzo[d]imidazol-1-yl)methyl)cyclohexyl)-2-methylnicotinamide]
Cc1ccc(-n2c(=O)n(C[C@H]3CC[C@H](NC(=O)c4cc(Cl)ccc4C(F)(F)F)CC3)c3ccccc32)cn1 [Example 270, 5-chloro-N-((1r,4r)-4-((3-(6-methylpyridin-3-yl)-2-oxo-2,3-dihydro-1H-benzo[d]imidazol-1-yl)methyl)cyclo-hexyl)-2-(trifluoromethyl) benzamide]
CNc1ncc(-n2c(=O)n(C[C@H]3CC[C@H](NC(=O)c4cc(Cl)cnc4C(F)F)CC3)c3ccccc32)cc1C [Example 462, 5-chloro-2-(difluoromethyl)-N-((1r,4r)-4-((3-(5-methyl-6-(methylamino)pyridin-3-yl)-2-oxo-2,3-dihydro-1H-benzo [d]imidazol-1-yl)methyl)cyclo-hexyl)nicotinamide]
CC(=O)Nc1cc(C)c(-n2c(=O)n(C[C@H]3CC[C@H](NC(=O)c4cc(Cl)cnc4C(F)F)CC3)c3ccccc32)cn1 [Example 559, N-((1r,4r)-4-((3-(6-acetamido-4-methylpyridin-3-yl)-2-oxo-2,3-dihydro-1H-benzo[d]imidazol-1-yl)methyl)cyclo-hexyl)-5-chloro-2-(difluoro-methyl)nicotinamide]
O=C(N[C@H]1CC[C@H](Cn2c(=O)n(-c3ccc(-n4ccnc4)cc3)c3ccccc32)CC1)c1cc(Cl)cnc1C(F)F [Example 569, N-((1r,4r)-4-((3-(4-(1H-imidazol-1-yl)phenyl)-2-oxo-2,3-dihydro-1H-benzo[d]imidazol-1-yl)methyl)cyclo-hexyl)-5-chloro-2-(difluoro-methyl)nicotinamide]
